Among the data in publication PMC11974063 (BMC Medicine, 2025) are Kd values, retold here.

pKd: −log10 of the molar value.

For this assay, the target named is Influenza HA2 protein. It is filed as binding.

A word on the pKd: it is the Kd on a negative log10 scale, so that one unit is a factor of ten. A high value points to a low Kd. In turn, `COCCOC(=O)C1=C(C)NC(C)=C(C(=O)OC/C=C/c2ccccc2)C1c1cccc([N+](=O)[O-])c1` (stereo not shown) [cilnidipine] had a pKd of 7.49.
